Source: patent publication US20090023933A1, “METHOD FOR ISOLATING ACIDS FROM CHEMICAL REACTION MIXTURES BY USING 1-ALKYLIMIDAZOLES” (BASF Aktiengesellschaft, priority 2003, published 2009)

Experiment: Behavior of the 1-alkylimidazoles toward 30% strength NaCl solution (shaking funnel, phase separation, Karl-Fischer and GC analysis)
Conditions: for Solubility of free base in NaCl solution in %: free 1-alkylimidazole, 5 g imidazole shaken with 5 g solution of 30 g NaCl in 100 g water, lower phase extracted, GC with internal standard; for Solubility of water in imidazole in %: water determination on upper (imidazole) phase by Karl-Fischer titration after shaking with NaCl solution
Procedure: A solution of 30 g of sodium chloride in 100 g of demineralized water was prepared. 5 g of this solution were admixed with 5 g of the imidazole derivative listed in a shaking funnel and the mixture was shaken vigorously. The phases were then separated and weighed.
The weight of the upper phase was recorded.
For the purposes of analysis, a water determination was carried out on the upper phase (by Karl-Fischer titration). The lower phase was, if present, separated off, admixed with 1N KOH solution and extracted twice with xylene. After drying over magnesium sulfate, an internal standard (heptadecane) was added and the amount of dissolved imidazole was backcalculated after GC analysis.

Solubility of free base in NaCl solution in %	Solubility of water in imidazole in %	SMILES
100%	ca. 50%	CCn1ccnc1 [Et (comp.)]
100%	ca. 50%	Cn1ccnc1 [Me (comp.)]
0.2%	16%	CCCCn1ccnc1 [nBu, n-butylimidazole]
3%	30%	CCCn1ccnc1 [nPr, n-propylimidazole]
